The source of these data is patent US10184112B2, “Culture medium additive for use in serum-free culturing of animal cell, kit and use thereof” (Two Cells Co., Ltd., priority 2006, dated 2019).

Entries after “also recorded” stand apart in the source; their conditions may differ.

The first assay deals with Erk 1/2. As to the kind of experiment: Mitogenic signal transduction, western blot for phosphorylated Erk 1/2 (FIGS. 11, 12). Format: cell-based. Conditions: human mesenchymal stem cells stimulated; compared with controlled cells (not stimulated). The procedure:
For the purpose of clarifying a mechanism of cell proliferation in a serum-free culture medium, study was further conducted on activation of a mitogenic signal transduction system caused by each additive factor added into a serum-free culture medium. An active state of the mitogenic signal transduction system caused by each additive factor was analyzed by a western blot method. Here, in protein phosphoenzymes that are particularly closely related to cell proliferation, an extracellular signal control kinase Erk 1/2 and an Akt (a protein phosphoenzyme located downstream to PI3K, and related to regulations of cell functions) were focused in the present example. When the Erk1 1/2 and the Akt are phosphorylated, they are converted into active forms. […] The cultured cells were washed twice with PBS, and were then further cultured for 16 hours in a serum-free culture medium containing 1.25 mg/ml of BSA (bovine serum albumin). After that, the cultured cells were incubated for minutes respectively: (i) in stimulating solutions respectively containing growth factors (E: EGF, F: FGF, G: PDGF, H: HGF, I: insulin, J: TGF-β), dexamethasone (D), transferrin (T); […] B1, A6: phosphatidic acid, A7: phosphatidyl choline); and (iii) in a controlling solution containing none of them. Further, each of the stimulating solutions, and the controlling solution were removed by suction on ice, and then, the cells were washed twice with PBS. The cells thus washed were dissolved in lysis buffer. The resultant cell lysis solution was centrifuged by 6.500 g for 10 minutes, and its supernatant liquid was electrophoresed on 10% SDS-polyacrylamide gel. Proteins thus separated into fractions were transferred on a PVDF membrane (made by Millipore Co.), and then, the fractions were analyzed with antiphosphorylation-specific Erk 1/2 antibody, or antiphosphorylation-specific Akt antibody (both are made by Cell Signaling technology Inc.).
On the technique in general: A western blot detects proteins with antibodies after separation by electrophoresis.
Regarding 3-sn-phosphatidic acid from egg yolk, the “phosphorylation of the Erk 1/2” value is “strongly promoted”.

As for 3-sn-phosphatidyl choline from egg yolk, the “phosphorylation of the Erk 1/2” value is given as “promoted”.

Regarding `CCCCC/C=C\C/C=C\C/C=C\C/C=C\CCCC(=O)O` [arachidonic acid], the “phosphorylation of the Erk 1/2” value was “promoted”.

Consider `CCCCC/C=C\C/C=C\CCCCCCCC(=O)O` [linoleic acid], for which the “phosphorylation of the Erk 1/2” value is on record as “promoted”.

As for `CCCCCCCC/C=C\CCCCCCCC(=O)O` [oleic acid], the “phosphorylation of the Erk 1/2” value was “promoted”.

Turning to EGF: epidermal growth factor, the “phosphorylation of the Erk 1/2” value is recorded as “more phosphorylated”.

For “FGF: growth factor of the fibroblast growth factor family, preferably FGF-2 (bFGF)”, the “phosphorylation of the Erk 1/2” value is listed as “more phosphorylated”.

In the case of “HGF: growth factor added to the serum-free culture medium”, the “phosphorylation of the Erk 1/2” value is reported as “more phosphorylated; also recorded: promoted in view of concentration dependence”.

For the compound PDGF, the “phosphorylation of the Erk 1/2” value is on record as “more phosphorylated”.

On to insulin: medium supplement, for which the “phosphorylation of the Erk 1/2” value is listed as “more phosphorylated”.

The subject of another assay is Akt. Description: Mitogenic signal transduction, western blot for phosphorylated Akt (FIGS. 11, 12). Conditions: human mesenchymal stem cells stimulated; compared with controlled cells (not stimulated). It counts as cell-based. As for the experimental part:
For the purpose of clarifying a mechanism of cell proliferation in a serum-free culture medium, study was further conducted on activation of a mitogenic signal transduction system caused by each additive factor added into a serum-free culture medium. An active state of the mitogenic signal transduction system caused by each additive factor was analyzed by a western blot method. Here, in protein phosphoenzymes that are particularly closely related to cell proliferation, an extracellular signal control kinase Erk 1/2 and an Akt (a protein phosphoenzyme located downstream to PI3K, and related to regulations of cell functions) were focused in the present example. When the Erk1 1/2 and the Akt are phosphorylated, they are converted into active forms. In a culture medium containing 10% FBS on a 12-well plate, human mesenchymal stem cells (three cell lines) were cultured until the cells were in a subconfluent state. The cultured cells were washed twice with PBS, and were then further cultured for 16 hours in a serum-free culture medium containing 1.25 mg/ml of BSA (bovine serum albumin). […] Proteins thus separated into fractions were transferred on a PVDF membrane (made by Millipore Co.), and then, the fractions were analyzed with antiphosphorylation-specific Erk 1/2 antibody, or antiphosphorylation-specific Akt antibody (both are made by Cell Signaling technology Inc.).
As for 3-sn-phosphatidic acid from egg yolk, the “phosphorylation of the Akt” value was “strongly promoted”.

Turning to “HGF: growth factor added to the serum-free culture medium”, the “phosphorylation of the Akt” value is given as “also promoted”.

Another assay relates to human mesenchymal stem cell.
Test: not given
Conditions: added to a culture medium containing 10% FBS; cited from earlier work.
On to `[Cl-].[Li+]` [lithium chloride], for which the “proliferation of a human mesenchymal stem cell” value was “promoting proliferation” and the “wingless/int (wnt) signal pathway” value is on record as “activates”.
